# How the values were obtained:
# C. albicans = assay: Disk diffusion assay, C. albicans; type: cell-based; conditions: aromatic compounds
# Experimental: (§1) The following disk diffusion assays were performed with example compounds described above to assess the ability of compounds to inhibit growth of microorganism. A compound that inhibits its target enzyme may perform poorly for a number of reasons, including low solubility in water or slow rate of transport across a microbial membrane.
# [1] = target: T1, ASADH from Candida albicans (CalASADH) (Candida albicans, UniProt Q5ALM0); assay: Time-dependent inactivation of CalASADH (pre-incubation, residual activity); type: biochemical
# T1 construct: His tag; made in house
# T1 sequence (Q5ALM0 1-365): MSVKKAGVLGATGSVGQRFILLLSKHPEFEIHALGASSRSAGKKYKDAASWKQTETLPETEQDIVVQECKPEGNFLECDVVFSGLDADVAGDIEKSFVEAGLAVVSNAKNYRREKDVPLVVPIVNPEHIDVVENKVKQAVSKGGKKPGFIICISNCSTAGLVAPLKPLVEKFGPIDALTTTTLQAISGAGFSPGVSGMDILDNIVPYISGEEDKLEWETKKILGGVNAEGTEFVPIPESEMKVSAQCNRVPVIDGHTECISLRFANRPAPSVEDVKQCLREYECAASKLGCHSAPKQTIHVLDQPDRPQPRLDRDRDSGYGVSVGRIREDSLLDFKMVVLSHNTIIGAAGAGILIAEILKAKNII
# Experimental: Aryl vinyl sulfones can be reasonably potent inhibitors of CalASADH, each inhibitor was then tested to determine if it would function as an enzyme inactivator. […] In most cases the residual enzyme activity, measured following a subsequent 20-fold dilution into an assay mixture, decreased to less than 5% of the control rate after incubation with low micromolar levels of these inactivators for 10 min or less. To determine the rate of inactivation the concentration of each vinyl sulfone in this pre-incubation mixture was then varied, centered around their initial measured Ki values. The rate of activity loss observed in each incubation reaction (kobs) was plotted against the inhibitor concentration to determine the inactivation rate (kinact) for that compound and the concentration that produces half-maximal inactivation (Ki). […] The proposed product of the reaction of the active site nucleophile (Cys-156) with this inactivator predicts key interactions of the p-nitro group with Arg-18 and Ser-187, and the protonation of the covalent intermediate by His-256. […] Reaction of this inactivator with the active site nucleophile (Cys-156) predicts keys interactions between its carboxyl group and several backbone amide nitrogens that would shift this adduct further from the active site base (His-256). […]
# C. albicans cells = assay: C. albicans cell survival after exposure to inactivator; type: cell-based, Candida albicans; conditions: 1 h exposure; for cell survival rate, in words: several concentrations, survival after 48 h
# Experimental: According to some embodiments, vinyl sulfone compounds contain both polar and, in some cases, charged functional groups that would make cellular uptake more challenging. However, to test the possibility that these compounds could inhibit the growth of C. albicans, two inactivators were selected for examination. […] The cells were plated and their survival rates were measured after 48 h relative to a control growth in the absence of inactivator.
# S. aureus = assay: Disk diffusion assay, S. aureus; type: cell-based; conditions: aromatic compounds
# Experimental: as §1
# K pneumoniae = assay: Disk diffusion assay, K pneumoniae; type: cell-based; conditions: aromatic compounds
# Experimental: as §1
SMILES,"disk diffusion, C. albicans (C. albicans)","ASADH inactivation, in words [1]","cell survival (C. albicans cells; 25 μM, survival after 48 h relative to control)","cell survival rate, in words (C. albicans cells)","disk diffusion, S. aureus (S. aureus)","disk diffusion, K pneumoniae (K pneumoniae)"
"CS(=O)(=O)/C=C/c1ccc2ccccc2n1 [2-MSV-quinoline, 2-(S-methylsulfonylvinyl)quinoline]",weak,–,–,–,–,–
CS(=O)(=O)/C=C/c1ccc(C(=O)O)cc1 [4-(methylsulfonylvinyl)benzoic acid],–,very good ASADH inactivator,less than 75%,some decrease in cell survival rate,–,–
O=S(=O)(/C=C/c1ccncc1)c1ccccc1 [4-(phenylsulfonylvinyl)pyridine],–,moderate inactivator,–,some decrease in cell survival rate,–,–
"CS(=O)(=O)/C=C/c1ccncc1 [4-MSV-pyridine, 4-(methylsulfonylvinyl)pyridine]",medium,–,–,–,medium,medium

# — patent US20240180158A1, “COMPOUNDS HAVING SELECTIVE INACTIVATION ACTIVITY” (University of North Carolina at Wilmington, priority 2021, published 2024)
